From US5391540A, “Substituted pyridine compounds” (Rohm and Haas Company, priority 1993, dated 1995)

Columns and labels:
Assay in all cases: Pre-emergent herbicidal activity (Table A)
Format in all cases: in vivo
[1] = test system: Velvetleaf; conditions: Abutilon theophrasti, pre-emergence, Vele, 11.2 kg/ha, 10-14 days, read-out: herbicidal rating (% inhibition)
Experimental: (§1) The herbicidal ratings used in Tables A and B were assigned according to a scale based on the percent inhibition of each plant species. The herbicide rating symbols in Tables A and B are defined as follows: […]
(§2) One set of pre-emergent tests was conducted as follows:
(§3) Topsoil was placed in a pan and compacted to a depth of 0.95 to 1.27 cm. from the top of the pan. A predetermined number of seeds of each of several monocotyledonous and dicotyledonous annual plant species and/or vegetative propagules of various perennial plant species were placed on top of the soil. The soil required to level fill a pan after seeding or adding vegetative propagules was weighed into another pan. A known amount of the test compound dissolved or suspended in an organic solvent or water and applied in acetone or water as a carrier was thoroughly mixed with this cover soil, and the herbicide/soil mixture was used as a cover layer for the previously prepared pan.
(§4) The plant species usually regarded as weeds which were utilized in one set of pre-emergent activity tests, the data for which are shown in Table A, are identified by letter headings printed diagonally above the columns according to the following legend: […]

[2] = test system: Yellow Nutsedge; conditions: Cyperus, pre-emergence, Yens, 11.2 kg/ha, 10-14 days, read-out: herbicidal rating (% inhibition)
Experimental: as §1, §2, §3, §4

[3] = test system: Common Lambsquarters; conditions: Chenopodium album, pre-emergence, Colq, 11.2 kg/ha, 10-14 days, read-out: herbicidal rating (% inhibition)
Experimental: as §1, §2, §3, §4

[4] = test system: Barnyardgrass; conditions: Echinochloa crus-galli, pre-emergence, Bygr, 11.2 kg/ha, 10-14 days, read-out: herbicidal rating (% inhibition)
Experimental: as §1, §2, §3, §4

[5] = test system: Quackgrass; conditions: pre-emergence, Rhqg, 11.2 kg/ha, 10-14 days, read-out: herbicidal rating (% inhibition)
Experimental: as §1, §2, §3, §4

[6] = test system: Morningglory; conditions: Ipomoea, pre-emergence, Mogl, 11.2 kg/ha, 10-14 days, read-out: herbicidal rating (% inhibition)
Experimental: as §1, §2, §3, §4

[7] = test system: Downy Brome; conditions: Bromus tectorum, pre-emergence, Dobr, 11.2 kg/ha, 10-14 days, read-out: herbicidal rating (% inhibition)
Experimental: as §1, §2, §3, §4

[8] = test system: Cocklebur; conditions: Xanthium strumarium, pre-emergence, Cobu, 11.2 kg/ha, 10-14 days, read-out: herbicidal rating (% inhibition)
Experimental: as §1, §2, §3, §4

[9] = test system: Rhizome Johnsongrass; conditions: Sorghum halepense, pre-emergence, Rhjg, 11.2 kg/ha, 10-14 days, read-out: herbicidal rating (% inhibition)
Experimental: as §1, §2, §3, §4

[10] = test system: Pennsylvania Smartweed; conditions: pre-emergence, Pesw, 11.2 kg/ha, 10-14 days, read-out: herbicidal rating (% inhibition)
Experimental: as §1, §2, §3, §4

[11] = test system: Canada thistle; conditions: Cirsium arvense, pre-emergence, Cath, 11.2 kg/ha, 10-14 days, read-out: herbicidal rating (% inhibition)
Experimental: as §1, §2, §3, §4

Row | SMILES | inhibition at 11200 g/ha [1] [%] | inhibition at 11200 g/ha [2] [%] | inhibition at 11200 g/ha [3] [%] | inhibition at 11200 g/ha [4] [%] | inhibition at 11200 g/ha [5] [%] | inhibition at 11200 g/ha [6] [%] | inhibition at 11200 g/ha [7] [%] | inhibition at 11200 g/ha [8] [%] | inhibition at 11200 g/ha [9] [%] | inhibition at 11200 g/ha [10] [%] | inhibition at 11200 g/ha [11] [%]
1 | COc1nc(C(F)(F)F)c(C(=O)SC)c(CC(C)C)c1C(=O)SC [Compound 47, 3,5-pyridinedicarbothioic acid, 2-methoxy-4-(2-methylpropyl)-6-(trifluoromethyl)-, S,S,-dimethyl ester] | 75 to 100 | 75 to 100 | 75 to 100 | 75 to 100 | 75 to 100 | 75 to 100 | 75 to 100 | 25 to 49 | 75 to 100 | 75 to 100 | 75 to 100
2 | COC(=O)c1c(OC)nc(C(F)F)c(C(=O)OC)c1CC(C)C [Compound 31, 3,5-pyridinedicarboxylic acid, 2-(difluoromethyl)-6-methoxy-4-(2-methylpropyl)-, dimethyl ester] | 75 to 100 | 50 to 74 | 75 to 100 | 75 to 100 | 75 to 100 | 75 to 100 | 75 to 100 | 0 to 24 | 75 to 100 | 75 to 100 | 0 to 24
3 | COc1nc(C(F)(F)F)c(C2=NCCS2)c(CC(C)C)c1C(=O)SC [Compound 54, 3-pyridinecarbothioic acid, 5-(4,5-dihydro-2-thiazolyl)-2-methoxy-4-(2-methylpropyl)-6-(trifluoromethyl)-, S-methyl ester] | 75 to 100 | 0 to 24 | 75 to 100 | 75 to 100 | 75 to 100 | 75 to 100 | 75 to 100 | 25 to 49 | 0 to 24 | 75 to 100 | 75 to 100
4 | COC(=O)c1c(OC)nc(C(F)(F)F)c(C2=NC(C)(C)CS2)c1CC(C)C [Compound 75, 3-pyridinecarboxylic acid, 5-(4,5-dihydro-4,4-dimethy1-2-thiazolyl)-2-methoxy-4-(2-methylpropyl)-6-(trifluoromethyl)-, methyl ester] | 75 to 100 | 75 to 100 | 75 to 100 | 75 to 100 | 75 to 100 | 75 to 100 | 75 to 100 | 50 to 74 | 25 to 49 | 75 to 100 | 75 to 100
5 | CCOC(=O)c1c(C(F)(F)F)nc(OC)c(C(=O)OC)c1CC(C)C [Compound 44, 3,5-pyridinedicarboxylic acid, 2-methoxy-4-(2-methylpropyl)-6-(trifluoromethyl)-, 5-ethyl 3-methyl ester] | 75 to 100 | 75 to 100 | 75 to 100 | 75 to 100 | 75 to 100 | 75 to 100 | 75 to 100 | 25 to 49 | 75 to 100 | 75 to 100 | 75 to 100
6 | COC(=O)c1c(OC)nc(C(F)(F)F)c(C(=O)NCCO)c1CC(C)C [Compound 38, 3-pyridinecarboxylic acid, 5-[[(2-hydroxyethyl)amino]carbonyl]-2-methoxy-4-(2-methylpropyl)-6-(trifluoromethyl)-, methyl ester] | 0 to 24 | 0 to 24 | 0 to 24 | 0 to 24 | 0 to 24 | 0 to 24 | 0 to 24 | 0 to 24 | 0 to 24 | 0 to 24 | 0 to 24
7 | CCOC(=O)c1c(OC)nc(C(F)(F)F)c(C(=O)OC)c1CC(C)C [Compound 4, 3,5-pyridinedicarboxylic acid, 2-methoxy-4-(2-methylpropyl)-6-(trifluoromethyl)-, 3-ethyl 5-methyl ester] | 75 to 100 | 25 to 49 | 75 to 100 | 75 to 100 | 75 to 100 | 75 to 100 | 75 to 100 | 0 to 24 | 75 to 100 | 75 to 100 | 75 to 100
8 | CCOC(=O)c1c(OC(C)C)nc(C(F)(F)F)c(C(=O)OC)c1CC(C)C [Compound 5, 3,5-pyridinedicarboxylic acid, 2-(1-methylethoxy)-4-(2-methylpropyl)-6-(trifluoromethyl)-, 3-ethyl 5-methyl ester] | 0 to 24 | 0 to 24 | 75 to 100 | 75 to 100 | 50 to 74 | 0 to 24 | 75 to 100 | 0 to 24 | 75 to 100 | 25 to 49 | 0 to 24
9 | COC(=O)c1c(C(F)(F)F)nc(OC)c(-n2cccc2)c1CC(C)C [Compound 14, 3-pyridinecarboxylic acid, 6-methoxy-4-(2-methylpropyl)-5-(1H-pyrro1-1-yl)-2-(trifluoromethyl)-, methyl ester] | 75 to 100 | 0 to 24 | 75 to 100 | 75 to 100 | 50 to 74 | 75 to 100 | 75 to 100 | 0 to 24 | 75 to 100 | 75 to 100 | 75 to 100
10 | COC(=O)c1c(OC)nc(C(F)(F)F)c(-n2cccc2)c1CC(C)C [Compound 15, 3-pyridinecarboxylic acid, 2-methoxy-4-(2-methylpropyl)-5-(1H-pyrro1-1-yl)-6-(trifluoromethyl)-, methyl ester] | 75 to 100 | 25 to 49 | 75 to 100 | 75 to 100 | 75 to 100 | 75 to 100 | 75 to 100 | 0 to 24 | 75 to 100 | 75 to 100 | 75 to 100
11 | COC(=O)c1c(OC)nc(C(F)(F)F)c(C(=O)N2CCC2)c1CC(C)C [Compound 68, 3-pyridinecarboxylic acid, 5-(1-azetidinylcarbonyl)-2-methoxy-4-(2-methylpropyl)-6-(trifluoromethyl)-, methyl ester] | 0 to 24 | 0 to 24 | 75 to 100 | 75 to 100 | 75 to 100 | 50 to 74 | 75 to 100 | 0 to 24 | 25 to 49 | 25 to 49 | 25 to 49
